# Experimental data as given in patent USRE48461E1, “Modulation of androgen receptor expression” (Ionis Pharmaceuticals, Inc., priority 2012, dated 2021).
# Legend:
# [1] = cynomolgus monkey, in vivo, sc, 40 mg/kg
# [2] = cynomolgus monkey, in vivo, sc, 40 mg/kg; remark: listed apart in the source
# [3] = cynomolgus monkey, in vivo, sc, 40 mg/kg; remark: listed apart in the source
# [4] = cynomolgus monkey, in vivo, sc, 40 mg/kg; remark: listed apart in the source
# [5] = cynomolgus monkey, in vivo, sc, 40 mg/kg; remark: listed apart in the source
# Procedure: Prior to the study, the monkeys were kept in quarantine for a 30-day period, during which the animals were observed daily for general health. The monkeys were 2-4 years old and weighed between 2 and 4 kg. Thirteen groups of four randomly assigned male cynomolgus monkeys each were injected subcutaneously with ISIS oligonucleotide or PBS. PBS solution or ISIS oligonucleotides, at a dose of 40 mg/kg, were administered with a loading regimen consisting of four doses on the first week of the study (days 1, 3, 5, and 7), followed by a maintenance regimen consisting of once weekly administration starting on Day 14 (weeks 2 to 6). Subcutaneous injections were performed in clock-wise rotations at 4 sites on the back; one site per dose. The injection sites were delineated by tattoo, while sedated using ketamine, and were separated by a minimum of 3 cm.
# Kidney function was also assessed by urinalysis. Fresh urine from all animals was collected on day 44 using a clean cage pan on wet ice. Food was removed overnight the day before fresh urine collection was done but water was supplied. The total protein and creatinine levels were measured using a Toshiba 120FR NEO automated chemistry analyzer (Toshiba Co., Japan) and the protein to creatinine ratio was calculated.
# [6] = cynomolgus monkey, in vivo, sc, 40 mg/kg; remark: listed apart in the source
# Procedure: The monkeys were 2-4 years old and weighed between 2 and 4 kg. Thirteen groups of four randomly assigned male cynomolgus monkeys each were injected subcutaneously with ISIS oligonucleotide or PBS. PBS solution or ISIS oligonucleotides, at a dose of 40 mg/kg, were administered with a loading regimen consisting of four doses on the first week of the study (days 1, 3, 5, and 7), followed by a maintenance regimen consisting of once weekly administration starting on Day 14 (weeks 2 to 6). Subcutaneous injections were performed in clock-wise rotations at 4 sites on the back; one site per dose. The injection sites were delineated by tattoo, while sedated using ketamine, and were separated by a minimum of 3 cm.
# To evaluate any inflammatory effect of ISIS oligonucleotides in cynomolgus monkeys, the monkeys were fasted overnight. Approximately, 1.5 mL of blood samples were collected from all the study groups on day 44. Blood was collected in tubes without anticoagulant for serum separation. The tubes were kept at room temperature for a minimum of 90 min and then centrifuged at 3,000 rpm for 10 min. C-reactive protein (CRP), which is synthesized in the liver and which serves as a marker of inflammation, was measured on day 43 using a Toshiba 120FR NEO chemistry analyzer (Toshiba Co., Japan). Complement C3 was also measured similarly, and the data is presented as a percentage of baseline values.
Substance,ALT [1],AST [1],Albumin [1],Body Wt [2],Heart weight [2],Kidney weight [2],Liver weight [2],Mesenteric lymph nodes weight [2],Spleen weight [2],HCT [3],Hemoglobin [3],Platelets [3],RBC [3],WBC [3],Plasma BUN [4],Plasma Creatinine [4],Urine protein/creatinine ratio [5],C3 (% of baseline) [6],CRP [6]
"ISIS 583918: antisense compound targeted to human AR (AGTCGCGACTCTGGTA; 3-10-3 (S)-cEt gapmer, further chemistry not given here)",75 IU/L,73 IU/L,4.1 g/dL,2.5 kg,8.9 g,12 g,60 g,3.5 g,4.6 g,46%,13.3 g/dL,435000 µL,5.8e+06 µL,12700 µL,24.5 mg/dL,0.87 mg/dL,0.01,89 % of baseline,3.5 mg/dL
"GATTTAATGGTTGCAA (cEt gapmer chemistry, further chemistry not given here) [ISIS 586124]",56 IU/L,94 IU/L,3.9 g/dL,2.5 kg,9.4 g,14 g,58 g,2.8 g,3.3 g,45%,13.6 g/dL,391000 µL,5.8e+06 µL,10400 µL,23.8 mg/dL,0.87 mg/dL,0.01,93 % of baseline,4.0 mg/dL
"ISIS 584149: antisense compound targeted to human AR (GTCAATATCAAAGCAC; 3-10-3 (S)-cEt gapmer, further chemistry not given here)",57 IU/L,58 IU/L,4.5 g/dL,2.5 kg,9.3 g,13 g,60 g,2.1 g,2.2 g,45%,13.7 g/dL,478000 µL,5.7e+06 µL,11300 µL,26.4 mg/dL,0.85 mg/dL,0.01,110 % of baseline,1.7 mg/dL
